Results: patent US20230248029A1, “Single-Serving Beverage Ingredient Containers Comprising Nanoparticulate Cannabidiol” (priority 2022, published 2023)

What was measured:
[1] = CBD extraction in brewed coffee beverage, pure CBD powder (HPLC); format: physicochemical
From the text: To test the extraction efficiency of pure CBD powder in a coffee brewing process, the foil lids of each of several single-serving coffee containers adapted for use in a Keurig single-serving coffee machine were peeled back, a small depression was made in the top of the coffee grounds, and a measured quantity of CBD powder was placed in the depression. The foil lids were then resealed, and the containers were shaken for 30 seconds to disperse the CBD powder throughout the mass of coffee grounds. Each of the containers was then used in a Keurig single-serving coffee machine to brew either a 160 mL coffee beverage or a 300 mL coffee beverage. Mixing the CBD powder throughout the coffee grounds allowed the CBD to melt as hot water flowed downward from the top of the container and through the mass of coffee grounds during the coffee brewing process; relative to simply disposing the CBD powder in the bottom of the container, this reduces the amount of CBD extracted into the coffee beverage but improves the extent to which the CBD is mixed and dispersed with other chemical components extracted with the coffee, thereby inhibiting the formation of a CBD film in the brewed coffee beverage.
For each brewed coffee beverage, the beverage was poured into three separate bottles; a small sample was taken from each bottle and diluted in 10× (by volume) ethanol. This mixture was then shaken and centrifuged to remove coffee components and dissolve the CBD. The supernatant was removed from the centrifuged samples and measured by high-performance liquid chromatography using an Agilent Zorbax Eclipse XDB-C8 column. The mobile phase was a 1 mL/min gradient of 70:30 (vol/vol) acetonitrile:water to 80:20 (vol/vol) acetonitrile:water over 8 minutes. A 20 μL injection was used and the column was kept at 25° C. Absorbance was measured at 210 nm with a 5 nm bandwidth.

[2] = CBD film formation on the surface of the brewed coffee beverage (visual); format: physicochemical; conditions: Keurig-brewed coffee beverage, visual (FIG. 5A, 5B)
From the text: This variability is expected due to the difference in particle size between the CBD powder and the ground coffee, which makes uniform dispersion of the CBD powder throughout the coffee grounds difficult.
Without wishing to be bound by any particular theory, the present inventors hypothesize that more concentrated droplets may be effective to increase the CBD extraction from F68 formulations.
This is because, in the use of Keurig single-serving coffee machines (and in conventional drip coffee makers), the water used is at or near its boiling point, which in any event is much higher than the melting point of CBD (66° C.), and the colloid droplets therefore cannot resist these high temperatures, causing coalescence of the CBD. In some embodiments, therefore, it may be desirable to brew the coffee beverage at a lower temperature, or to brew a conventional (non-CBD-containing) coffee beverage at typical near-boiling temperatures and then mix in a CBD colloid as described herein after the coffee beverage has cooled to below the melting point of CBD (but still at or above the temperature at which the consumer desires to consume the coffee, which on average is about 60° C.); it is to be expressly understood that such embodiments are within the scope of the present disclosure.

[3] = oral; cited from earlier work
[4] = CBD mass 50 mg, beverage volume 160 mL
[5] = CBD mass 50 mg, beverage volume 300 mL
[6] = CBD mass 75 mg, beverage volume 160 mL
[7] = CBD mass 75 mg, beverage volume 300 mL
[8] = CBD mass 100 mg, beverage volume 160 mL
[9] = CBD mass 100 mg, beverage volume 300 mL

`C=C(C)[C@@H]1CCC(C)=C[C@H]1c1c(O)cc(CCCCC)cc1O` [CBD, cannabidiol] showed a CBD extraction [1, 4] of 22.0 ± 9.6%, a CBD in beverage [1, 4] of 8.9 ± 4.4 mg and a CBD extraction [1, 5] of 42.1 ± 10.0%. It also gave a CBD in beverage [1, 5] of 20.3 ± 5.9 mg, a CBD extraction [1, 6] of 8.3 ± 6.2% and a CBD in beverage [1, 6] of 11.3 ± 4.8 mg. It also gave a CBD extraction [1, 7] of 15.8 ± 5.2%, a CBD in beverage [1, 7] of 11.9 ± 3.9 mg and a CBD extraction [1, 8] of 21.0 ± 14.8%. It also gave a CBD in beverage [1, 8] of 21.0 ± 14.8 mg, a CBD extraction [1, 9] of 11.9 ± 3.5% and a CBD in beverage [1, 9] of 11.9 ± 3.5 mg. For the same molecule, the “CBD film formation in the brewed coffee beverage” value [2] was “large, thick films” and the “Maximum theoretical bioavailability of orally administered CBD” value [3] was 19%.
